Source: PubChem BioAssay AID248 (DTP/NCI, 2004)
Inconclusive results and toxic doses are left out. Rule as the data show it: active = T/C of 150% or more; inactive = T/C below 125%.

Test system: L1210 leukemia ip in BDF1 mice, survival T/C
Assay: NCI In Vivo Anticancer Drug Screen. Data for tumor model L1210 Leukemia (intraperitoneal) in B6D2F1 (BDF1) mice
Conditions: endpoint: mean survival time, higher = longer survival
Method in brief: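 Each compound was tested against a transplantable tumor grown in mice. The endpoint was survival, with treated animals benchmarked against vehicle controls as a simple ratio.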

[1] = dose: 100.0 mg/kg/injection, schedule: Q01DX009 (ip), vehicle: saline
[2] = dose: 200.0 mg/kg/injection, schedule: Q01DX009 (ip), vehicle: saline
[3] = dose: 100.0 mg/kg/injection, schedule: Q01DX001 (ip), vehicle: carboxymethylcellulose (CMC)
[4] = dose: 200.0 mg/kg/injection, schedule: Q01DX001 (ip), vehicle: carboxymethylcellulose (CMC)
[5] = dose: 400.0 mg/kg/injection, schedule: Q01DX001 (ip), vehicle: carboxymethylcellulose (CMC)
[6] = dose: 100.0 mg/kg/injection, schedule: Q04DX003 (ip), vehicle: saline
[7] = dose: 200.0 mg/kg/injection, schedule: Q04DX003 (ip), vehicle: saline
[8] = dose: 400.0 mg/kg/injection, schedule: Q04DX003 (ip), vehicle: saline

Measured: T/C

CC1(C)OC2C(C(=O)N(CCO)CCO)OC(n3cnc4c(N)ncnc43)C2O1 (stereo not drawn)
inactive: dose: 75.0 mg/kg/injection, schedule: Q01DX001 (ip), vehicle: saline 102 % of control | dose: 75.0 mg/kg/injection, schedule: Q04DX003 (ip), vehicle: saline 106 % of control | dose: 150.0 mg/kg/injection, schedule: Q01DX001 (ip), vehicle: saline 104 % of control | dose: 150.0 mg/kg/injection, schedule: Q04DX003 (ip), vehicle: saline 106 % of control | dose: 300.0 mg/kg/injection, schedule: Q01DX001 (ip), vehicle: saline 101 % of control | dose: 300.0 mg/kg/injection, schedule: Q04DX003 (ip), vehicle: saline 107 % of control

O=S(=O)(/C=C\c1ccccc1)c1ccccc1
inactive: dose: 50.0 mg/kg/injection, schedule: Q01DX009 (ip), vehicle: saline 102 % of control | dose: 100.0 mg/kg/injection, schedule: Q01DX001 (ip), vehicle: acetone 97 % of control | [1] 97 % of control | dose: 100.0 mg/kg/injection, schedule: Q04DX003 (ip), vehicle: acetone 105 % of control | dose: 200.0 mg/kg/injection, schedule: Q01DX001 (ip), vehicle: acetone 106 % of control | [2] 91 % of control | dose: 200.0 mg/kg/injection, schedule: Q04DX003 (ip), vehicle: acetone 94 % of control | dose: 400.0 mg/kg/injection, schedule: Q01DX001 (ip), vehicle: acetone 97 % of control

Cc1cn(C2CC(O)C(CO)O2)c(=O)n(CCCc2ccccc2)c1=O (stereo not drawn)
inactive: dose: 50.0 mg/kg/injection, schedule: Q01DX001 (ip), vehicle: carboxymethylcellulose (CMC) 93 % of control | [3] 90 % of control | [4] 87 % of control | [5] 90 % of control

C=C1CCC2(C(C)C)CC12 (stereo not drawn)
inactive: [1] 103 % of control | [6] 96 % of control | [2] 93 % of control | [7] 110 % of control | dose: 400.0 mg/kg/injection, schedule: Q01DX009 (ip), vehicle: saline 94 % of control | [8] 100 % of control

Nc1nc2c(ncn2-c2cccc(NS(=O)(=O)c3cccc(S(=O)(=O)F)c3)c2)c(=O)[nH]1
inactive: dose: 25.0 mg/kg/injection, schedule: Q01DX001 (ip), vehicle: Klucel (hydroxypropylcellulose) (HPC) 96 % of control | dose: 50.0 mg/kg/injection, schedule: Q01DX001 (ip), vehicle: Klucel (hydroxypropylcellulose) (HPC) 98 % of control | dose: 100.0 mg/kg/injection, schedule: Q01DX001 (ip), vehicle: Klucel (hydroxypropylcellulose) (HPC) 94 % of control

CCCCCCCCC(O)(CCCCCCC)C(=O)O (stereo not drawn)
inactive: dose: 100.0 mg/kg/injection, schedule: Q04DX002 (ip), vehicle: Klucel (hydroxypropylcellulose) (HPC) 95 % of control | dose: 200.0 mg/kg/injection, schedule: Q04DX002 (ip), vehicle: Klucel (hydroxypropylcellulose) (HPC) 117 % of control | dose: 400.0 mg/kg/injection, schedule: Q04DX002 (ip), vehicle: Klucel (hydroxypropylcellulose) (HPC) 115 % of control

CNc1ncnc2c1cnn2C
inactive: dose: 5.0 mg/kg/injection, schedule: Q01DX015 (ip), vehicle: carboxymethylcellulose (CMC) 88 % of control | dose: 10.0 mg/kg/injection, schedule: Q01DX015 (ip), vehicle: carboxymethylcellulose (CMC) 97 % of control | dose: 20.0 mg/kg/injection, schedule: Q01DX015 (ip), vehicle: carboxymethylcellulose (CMC) 100 % of control | dose: 40.0 mg/kg/injection, schedule: Q01DX015 (ip), vehicle: carboxymethylcellulose (CMC) 93 % of control | dose: 80.0 mg/kg/injection, schedule: Q01DX015 (ip), vehicle: carboxymethylcellulose (CMC) 105 % of control | [3] 101 % of control | [4] 103 % of control | [5] 106 % of control

NC(=O)NC(=O)/C=C\C(=O)O
inactive: dose: 50.0 mg/kg/injection, schedule: Q01DX009 (ip), vehicle: Klucel (hydroxypropylcellulose) (HPC) 93 % of control | dose: 100.0 mg/kg/injection, schedule: Q01DX009 (ip), vehicle: Klucel (hydroxypropylcellulose) (HPC) 98 % of control | dose: 200.0 mg/kg/injection, schedule: Q01DX009 (ip), vehicle: Klucel (hydroxypropylcellulose) (HPC) 91 % of control

N#CC(CN1CCOCC1)[N+](=O)[O-] (stereo not drawn)
inactive: dose: 100.0 mg/kg/injection, schedule: Q04DX003 (ip), vehicle: saline with Tween-80 98 % of control | dose: 200.0 mg/kg/injection, schedule: Q04DX003 (ip), vehicle: saline with Tween-80 93 % of control | dose: 400.0 mg/kg/injection, schedule: Q04DX003 (ip), vehicle: saline with Tween-80 95 % of control

Cc1nccc(Cl)n1
inactive: [6] 104 % of control | [7] 90 % of control | [8] 93 % of control

C[C@@H](N)[C@@H](O)c1ccccc1
inactive: dose: 30.0 mg/kg/injection, schedule: Q01DX Z (oral), vehicle: saline 101 % of control | dose: 60.0 mg/kg/injection, schedule: Q01DX Z (oral), vehicle: saline 101 % of control

CC(=O)OC1C(=O)C(O)C(C)OC1O[C@@H]1C[C@@]2(C)[C@@H]3CC=C4[C@@H](C[C@H](O)C(=O)C4(C)C)[C@]3(C)C(=O)C[C@]2(C)[C@H]1[C@@](C)(O)C(=O)/C=C/C(C)(C)O (stereo partly drawn)
inactive: dose: 0.33 mg/kg/injection, schedule: Q01DX009 (ip), vehicle: saline 113 % of control | dose: 0.6 mg/kg/injection, schedule: Q01DX009 (ip), vehicle: saline 106 % of control | dose: 0.67 mg/kg/injection, schedule: Q01DX009 (ip), vehicle: saline 112 % of control | dose: 1.0 mg/kg/injection, schedule: Q01DX009 (ip), vehicle: saline 108 % of control | dose: 1.25 mg/kg/injection, schedule: Q01DX009 (ip), vehicle: saline 120 % of control | dose: 1.5 mg/kg/injection, schedule: Q01DX009 (ip), vehicle: saline 101 % of control | dose: 2.5 mg/kg/injection, schedule: Q01DX009 (ip), vehicle: saline 97 % of control

[O-]/[N+](=C\c1ccc(OCc2ccccc2)cc1)c1ccccc1
inactive: dose: 50.0 mg/kg/injection, schedule: Q01DX001 (ip), vehicle: saline 102 % of control | dose: 100.0 mg/kg/injection, schedule: Q01DX001 (ip), vehicle: saline 102 % of control | dose: 200.0 mg/kg/injection, schedule: Q01DX001 (ip), vehicle: saline 108 % of control | dose: 400.0 mg/kg/injection, schedule: Q01DX001 (ip), vehicle: saline 90 % of control

O=C(O)C1CCC(C(=O)O)NC1 (stereo not drawn)
inactive: [6] 106 % of control | [7] 102 % of control | [8] 101 % of control
